Test results taken from patent US8058247B2 (priority 2006, dated 2011).

Tests used:
M. bovis BCG Japanese = assay type: cell-based, Mycobacterium bovis; conditions: agar dilution, 3-week incubation at 37° C.; smaller number = higher activity
[1] = tested on: M. avium subsp. avium ATCC25291; assay: Minimum growth inhibitory concentration (MIC), serial dilution on Middlebrook 7H10 agar with mycobactin J; assay type: cell-based, Mycobacterium avium subsp. avium; conditions: 3-week incubation at 37° C., smaller number = higher activity
[2] = tested on: M. avium subsp. paratuberculosis ATCC43015; assay type: cell-based, Mycobacterium avium subsp. paratuberculosis

| Molecule | Minumum growth inhibitory conc. of test compounds, M. bovis BCG Japanese (M. bovis BCG Japanese) [µg/mL] | Minumum growth inhibitory conc. of test compounds, M. avium subsp. avium ATCC25291 [1] [µg/mL] | Minumum growth inhibitory conc. of test compounds, M. avium subsp. paratuberculosis ATCC43015 [2] [µg/mL] | antibacterial activity against Mycobacterium avium subsp. paratuberculosis compared with the caprazamycin derivatives of Production Examples 1 and 2 [2] |
| --- | --- | --- | --- | --- |
| caprazol-3′″-dodecanoyl ester derivative [Compound VII-F] | 3.13 | 12.5 | 0.78 |  |
| caprazamycin B [CPZ-B] | 6.25 | 12.5 | 3.13 | lower antibacterial activity |
| NNC(=O)c1ccncc1 [INH, isoniazid] | 0.20 | >50 | >50 | lower antibacterial activity |
